Laboratory results: patent US20090088377A1, “CYSTEIC ACID DERIVATIVES OF ANTI-VIRAL PEPTIDES” (priority 2007, published 2009)

Legend:
RSV = conditions: RSV-infected and uninfected Hep-2 cells; cited from earlier work
HIV-1 IIIB = assay: Anti-HIV efficacy evaluation in fresh human PBMCs (albumin conjugates vs original peptides); type: cell-based; conditions: NA = IC50 not achieved
Description: HIV-1 IIIB was obtained through the AIDS Research and Reference Reagent Program, Division of AIDS, NIAID, NIH courtesy of Dr. Robert C. […] Fresh human peripheral blood mononuclear cells (PBMCs), seronegative for HIV and HBV, were isolated from blood of screened donors (Biological Specialty Corporation; Colmar, Pa.) using Lymphocyte Separation Medium (LSM; Cellgro® by Mediatech, Inc.; density 1.078+/−0.002 g/ml) following the manufacturer's instructions. Cells were stimulated by incubation in 4 μg/mL Phytohemagglutinin (PHA; Sigma) for 48-72 hours. Mitogenic stimulation was maintained by the addition of 20 U/mL recombinant human IL-2 (R&D Systems, Inc) to the culture medium. PHA-stimulated PBMCs from at least two donors were pooled, diluted in fresh medium and added to 96-well plates at 5×10^4 cells/well. Cells were infected (final MOI≅0.1) in the presence of 9 different concentrations of test compounds (triplicate wells/concentration) and incubated for 7 days. […] Following removal of supernatant samples, compound cytotoxicity was measured by the addition of 3-(4,5-dimethylthiazol-2-yl)-5-(3-carboxymethoxyphenyl)-2-(4-sulfophenyl)-2H-tetrazolium (MTS; CellTiter 96 Reagent, Promega) following the manufacturer's instructions. […] AZT (nucleoside reverse transcriptase inhibitor) was used as the assay control compound.

HPIV-3 = conditions: HPIV-3-infected Hep2 cells and uninfected CV-1W cells; cited from earlier work
[1] = test system: NL4-3 with DIV (G36D) mutation in gp41; conditions: NL4-3, in vitro; cited from earlier work
[2] = target: HIV-1 transmembrane glycoprotein gp41 (strain HIV-1 IIIB) (HIV-1 strain IIIB) (UniProt P04578); assay: cell-based or functional assay
[3] = HIV-1 IIIB in PHA-stimulated PBMCs, 7 days

## IALLSTNKAVVSLSNGVSVLTSKVLDLKNYIDK [SEQ ID NO:24]
RSV
  Concentration inhibiting fusion and syncytia formation: less than 50 μg/ml

## Cc1cn([C@H]2C[C@H](N=[N+]=[N-])[C@@H](CO)O2)c(=O)[nH]c1=O [AZT]
HIV-1 IIIB; [3]
  IC50: 2.9 nM
  IC90: 26.9 nM
HIV-1 IIIB; from TC50 (MTS) and IC50 in PBMCs
  Selectivity Index: >346

## NSVALDPIDISIELNKAKSDLEESKEWIRRSNQKL [SEQ ID NO:27]
HPIV-3
  Concentration inhibiting fusion and syncytia formation: less than 1 μg/ml

## enfuvirtide
[1]
  Resistance conferred by the DIV (G36D) mutation in gp41: 8 fold

## T-20 (DP-178, enfuvirtide, Fuzeon) (peptide)
[2]
  IC50 (50% inhibition of virus replication), HIV-1 IIIB in PBMC: 2.2 nM
  IC90 (90% inhibition of virus replication), HIV-1 IIIB in PBMC: 9.5 nM

## C34 peptide
[2]
  IC50 (50% inhibition of virus replication), HIV-1 IIIB in PBMC: 0.6 nM
